The values below come from patent US20260137807A1, “COMPOSITIONS AND METHODS FOR DELIVERING A MACROMOLECULE TO A CELL” (AstraZeneca AB, priority 2022, published 2026).

The subject of assay [1] is T-47D cells. As to the kind of experiment: Co-delivery of Cre recombinase, in vitro editing GFP reporter. In kind it is cell-based. As to conditions: for editing: 50 nM Cre. An excerpt: Cre recombinase was co-administered with Compound 4 to assess improvement in editing efficiency in an in vitro reporter system in which edited cells express GFP. Total cell counts are shown as unfilled bars (FIG. 43A, left panel); viable cells are shown in light gray shaded bars (FIG. 43A, middle panel); edited cell counts are shown in green shaded bars, and edited cell percentage is shown as the dotted line (FIG. 43A, right panel).
The media change increased cell viability, as shown by the difference between the left and right panels of FIGS. 43B and 43C. […] Greater than 80% editing was observed when Cre protein was co-administered with 2 μM or 3 μM Compound 4 in the media changed condition, and 3 μM Compound 4 in the media unchanged condition.

Assay [2] has as its system HEK cells. As to the kind of experiment: Co-delivery of ABE8e base editor, GFP reporter. Format: cell-based. As to conditions: 50 nM ABE8e, Compound 4 concentrations above 2.5 μM, FIG. 46B. The procedure:
The ABE8e base editor comprising SpCas9 D10A nickase and a modified TadA adenosine deaminase (Richter et al., Nature Biotechnol. 38:883-891 (2020)) was co-administered with Compound 4 to assess improvement in editing efficiency in an in vitro reporter system in which edited cells express GFP. […] The bar shading and lines showing total cell counts, viable cells, and edited cells are the same as in FIG. 43A.
HEK cells were co-administered with a fixed concentration (50 nM) of ABE8e and varying concentrations of AZ3327 (Compound 4). The results in FIG. 46B show greater than 90% editing efficiency at Compound 4 concentrations of above 2.5 μM.
HEK and N2a cells were co-administered with a fixed concentration (2.5 μM) of Compound 4 and varying concentrations of ABE8e.

On to `COc1nn(C2CCNCC2)cc1Nc1ncc(F)c(-n2ccc3c(C#N)cccc32)n1` [Compound 4], for which the editing efficiency entry in assay [1] (50 nM Cre protein, 0, 1, 2 or 3 μM compound, FIG. 43B) is listed as “improved editing efficiency in T-47D cells in a dose-dependent manner”; in assay [2], “greater than 90%”. Also, the editing entry in assay [1] (2 μM compound, media changed after 2 hours) was “Greater than 80%”; in assay [1] (3 μM compound, media changed after 2 hours), “Greater than 80%”; in assay [1] (3 μM compound, media unchanged) it was “Greater than 80%”.
